In ChEMBL document CHEMBL3244166, “Syntheses and biological activities of basically substituted isoalloxazines” (J Med Chem, 1978) one finds survival and Activity data, which are given here for 6 compounds.

Series [1] in a line: Toxicity in weanling Wistar rat assessed as survival at 2 mg/rat/day administered by stomach tube prior to feeding with riboflavin-deficient diet measured for 28 days relative to control. To be noted: in vivo, oral.
In series [2] the test system is Rattus norvegicus. Put plainly: In vivo inhibition of riboflavin activity in weanling Wistar rat assessed as change in body weight at 2 mg/kg/day administered by stomach tube prior to feeding with riboflavin-deficient diet measured for 28 days (reference value: 3 +/- 1 g). In kind it is functional.
In series [3] the test system is Rattus norvegicus. The series is described as follows: Induction of riboflavin-like activity in weanling Wistar rat assessed as change in body weight at 2 mg/kg/day administered by stomach tube prior to feeding with riboflavin-deficient diet measured for 28 days in presence of 20 ug/day riboflavin (reference value: 3 +/- 1 g). Format: functional.
In series [4] the test system is Rattus norvegicus. The series is described as follows: Induction of riboflavin-like activity in weanling Wistar rat assessed as change in body weight at 2 mg/kg/day administered by stomach tube prior to feeding with riboflavin-deficient diet measured for 28 days in presence of 40 ug/day riboflavin (reference value: 3 +/- 1 g). In kind it is functional.
Series [5] concerns Rattus norvegicus. The series is described as follows: In vivo inhibition of riboflavin activity in weanling Wistar rat assessed as decrease in body weight at 2 mg/kg/day administered by stomach tube prior to feeding with riboflavin-deficient diet measured for >= 14 days (reference value: 3 +/- 1 g). Format: functional.
In series [6] the test system is Rattus norvegicus. Put plainly: Induction of riboflavin-like activity in weanling Wistar rat assessed as change in body weight at 2 mg/kg/day administered by stomach tube prior to feeding with riboflavin-deficient diet measured for 28 days in presence of 60 ug/day riboflavin (reference value: 3 +/- 1 g). In kind it is functional.

As for `Cc1cc2nc3c(=O)[nH]c(=O)nc-3n(CCN(CCO)CCO)c2cc1C`, the survival at 672 h in series [1] worked out at 40%. Further, the Activity was -10 g in the series with Rattus norvegicus [2] and 35 g in the series with Rattus norvegicus [3].

As for `O=c1nc2n(CCN(CCO)CCO)c3cc(Cl)c(Cl)cc3nc-2c(=O)[nH]1`, the survival at 672 h in series [1] came to 100%. Also, the Activity in the series with Rattus norvegicus [2] is 6 g.

For the compound `Cc1cc2c(cc1Cl)nc1c(=O)[nH]c(=O)nc-1n2CCN(CCO)CCO.Cl`, the survival at 672 h in series [1] was determined as 100%. The Activity with Rattus norvegicus [2] is on record as -8 g.

On to `Cc1cc2nc3c(=O)[nH]c(=O)nc-3n(CCN(CCO)CCO)c2cc1Cl.Cl`, for which, in series [1], the survival at 672 h was determined as 100%. Further, the Activity in the series on Rattus norvegicus [2] came to 0 g.

As to `CCc1cc2nc3c(=O)[nH]c(=O)nc-3n(CCN(CCO)CCO)c2cc1C.Cl`, the Activity in the series with Rattus norvegicus [4] is 21 g; in the series on Rattus norvegicus [2] it was -25 g; with Rattus norvegicus [3], -2 g. In addition, the survival at 672 h in series [1] is 60%.

For `CCc1cc2nc3c(=O)[nH]c(=O)nc-3n(CCN(CCO)CCO)c2cc1CC.Cl`, the Activity is reported as -26 g with Rattus norvegicus [5], 33 g with Rattus norvegicus [6], 7 g in the series on Rattus norvegicus [4] and -9 g in the series with Rattus norvegicus [3]. Also, the survival at 672 h in series [1] stood at 25%.
